Experiment: Determination of bioavailability in a dog
Assay type: in vivo
Details: plasma, male beagle dogs, IV 1 mg/kg vs oral gavage 5 mg/kg
Experimental: The following protocol was used to estimate the bioavailability of test compounds in a dog. Test compounds were formulated in vehicles compatible with intravenous and oral dosing. Test compounds were administered to male beagle dogs via an intravenous bolus at 1 mg/kg (1 mg/mL at a dose volume of 1 mL/kg) or via oral gavage at 5 mg/kg (1 mg/mL at a dose volume of 5 mL/kg). Blood samples were collected via the contralateral (to intravenous bolus) jugular vein or via other accessible vein, at various timepoints following administration out to 24 hours post dose. Plasma samples (EDTA) were obtained by centrifugation (2200×g for 10 minutes at 5° C.) and stored frozen ([…]) until analyzed for parent compound via LC/MS/MS. Pharmacokinetic parameters were estimated from the plasma concentration time data by standard non-compartmental methods utilizing standard analysis software. By comparing the area under the curve (AUC) for IV and PO administration estimates of oral bioavailability were determined.

`CN(C(=O)[C@@H]1[C@@H](Cc2ccnc(N)c2)C(=O)N1C(=O)N[C@@H](C1CCCCC1)C(F)(F)F)c1ncccn1` [Compound 21] and `CC[C@@H](NC(=O)N1C(=O)[C@H](Cc2ccnc(N)c2)[C@H]1C(=O)N(CC)c1ncccn1)C1CCCCC1` [Compound 39] cannot be ordered by bioavailability: no more than 10% for the first, no more than 10% for the second.

`CC[C@@H](NC(=O)N1C(=O)[C@H](Cc2cc(C)nc(N)c2)[C@H]1C(=O)N(C)c1ccccc1)C1CCCCC1` [Compound 91] and `CC[C@@H](NC(=O)N1C(=O)[C@H](Cc2ccnc(N)c2)[C@H]1C(=O)N(C)c1ccccc1)C1CCCCC1` [Compound 27] cannot be ordered by bioavailability: greater than 30% for the first, greater than 30% for the second.

Compared with `CN(C(=O)[C@@H]1[C@@H](Cc2ccnc(N)c2)C(=O)N1C(=O)N[C@@H](C1CCCCC1)C1CC1)c1ccccc1` [Compound 36], `CN(C(=O)[C@@H]1[C@@H](Cc2ccnc(N)c2)C(=O)N1C(=O)N[C@@H](C1CCCCC1)C1CC1)c1ccncc1` [Compound 52] is lower in bioavailability: 11 to 30% for the first, no more than 10% for the second.

Going from `CC[C@@H](NC(=O)N1C(=O)[C@H](Cc2ccnc(N)c2)[C@H]1C(=O)N(C)c1ncccn1)c1cccnc1` [Compound 61] to `CC[C@@H](NC(=O)N1C(=O)[C@H](Cc2ccnc(N)c2)[C@H]1C(=O)N(C)c1ncccn1)c1ccccc1` [Compound 84], the bioavailability rises from no more than 10% to greater than 30%.

First: CC[C@@H](NC(=O)N1C(=O)[C@H](Cc2ccnc(NC)c2)[C@H]1C(=O)N(C)c1ncccn1)C1CCCCC1 [Compound 80]
Second: CC[C@@H](NC(=O)N1C(=O)[C@H](Cc2ccnc(N)c2)[C@H]1C(=O)N(C)c1ccncc1)C1CCCCC1 [Compound 25]
The bioavailability of the first is higher: greater than 30% for the first, 11 to 30% for the second.

`CC[C@@H](NC(=O)N1C(=O)[C@H](Cc2ccnc(N)c2)[C@H]1C(=O)N(C)c1ccncc1)c1cccc(Cl)c1` [Compound 90] and `CC[C@@H](NC(=O)N1C(=O)[C@H](Cc2ccnc(N)c2)[C@H]1C(=O)N(C)c1ccncc1)c1cccc(C)c1` [Compound 87] cannot be ordered by bioavailability: greater than 30% for the first, greater than 30% for the second.

First: CC[C@@H](NC(=O)N1C(=O)[C@H](Cc2ccnc(N)c2)[C@H]1C(=O)N(C)c1ccncc1)c1cccnc1 [Compound 59]
Second: CC[C@@H](NC(=O)N1C(=O)[C@H](Cc2ccnc(N)c2)[C@H]1C(=O)N(C)c1ccncc1)c1ccccc1 [Compound 42]
The bioavailability of the first is lower: 11 to 30% for the first, greater than 30% for the second.

— patent US20190315711A1 (eXIthera Pharmaceuticals, Inc., priority 2016, published 2019)
